The test concerns the target T1, purified recombinant human p38 alpha MAPK (Homo sapiens, UniProt Q16539).
T1 construct: purchased Millipore, USA
The test is described as follows: Inhibition of p38 alpha MAPK activity: TR-FRET kinase assay. In kind it is biochemical. The conditions noted are these: read-out: P38α Inhibition; for inhibition at 1 µM: Concentration 1 μM. How it is done:
Inhibition of p38 Alpha MAPK Activity: Time-Resolved Fluorescence Resonance Energy Transfer Kinase Standard Assay (TR-FRET Assay)
Compounds of present invention at various concentrations were premixed with DMSO. The experiment was initiated by mixing 0.5% 1.0% DMSO as vehicle/compounds with purified recombinant human p38 alpha MAPK (Millipore, USA) in the wells and 15 min incubation at RT. Thereafter, 30 nM of Biotinylated GST-ATF2 (Activation Transcription Factor2) and 100 μM of ATP were added in to the wells containing reaction mixture, followed by reincubation for 60 minutes at RT. Reaction was terminated by addition of 10 mM of EDTA and detection reagent containing anti-phosphothreonine ATF2 antibody (Perkin Elmer, USA) labelled with europium chelate and APC (Allophycocyanin) labeled streptavidin, into the reaction mixture which was further incubated for 60 minutes at room temperature. The degree of phosphorylation of the substrate (GST-ATF2) was measured using Envision multimode reader (Perkin Elmer). Percentage inhibition of p38 kinase activity was calculated by determining ratio of specific europium 665 nm energy transfer signal to reference 615 nm signal.

Molecules are shown by their SMILES.

T1 sequence (Q16539 whole entry): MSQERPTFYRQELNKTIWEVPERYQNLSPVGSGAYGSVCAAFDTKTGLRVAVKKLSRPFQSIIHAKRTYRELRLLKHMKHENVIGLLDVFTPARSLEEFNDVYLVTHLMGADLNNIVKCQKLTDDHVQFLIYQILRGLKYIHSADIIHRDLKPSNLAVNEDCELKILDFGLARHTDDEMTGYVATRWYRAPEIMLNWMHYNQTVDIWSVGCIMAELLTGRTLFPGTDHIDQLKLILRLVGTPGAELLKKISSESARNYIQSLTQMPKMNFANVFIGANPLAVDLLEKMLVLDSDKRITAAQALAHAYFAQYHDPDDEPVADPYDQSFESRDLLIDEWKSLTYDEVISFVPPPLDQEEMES

For `CC(C)(C)c1cc(NC(=O)NCc2ccccc2Oc2ccc3c(c2)sc2ncc(C(=O)O)n23)n(-c2ccc(O)c(Cl)c2)n1` [Compound 19, 7-{2-[({[3-tert-butyl-1-(3-chloro-4-hydroxyphenyl)-1H-pyrazol-5-yl]carbamoyl}amino)methyl]phenoxy}imidazo[2,1-b][1,3]benzothiazole-3-carboxylic acid], the inhibition (as a rule, the percentage by which the read-out fell short of the control) at 1 µM lay within 80 to 100%. Regarding `CC(C)(C)c1cc(NC(=O)NCc2ccccc2Oc2ccc3c(c2)sc2ncc(C(=O)NCCO)n23)n(-c2ccc(O)c(Cl)c2)n1` [Compound 20, 7-{2-[({[3-tert-butyl-1-(3-chloro-4-hydroxyphenyl)-1H-pyrazol-5-yl]carbamoyl}amino)methyl]phenoxy}-N-(2-hydroxyethyl)imidazo[2,1-b][1,3]benzothiazole-3-carboxamide], the inhibition at 1 µM fell in the range of 80 to 100%.

On to `CC(C)(C)c1cc(NC(=O)NCc2ccccc2Oc2ccc3c(c2)sc2ncc(C(=O)NC(CO)CO)n23)n(-c2ccc(O)c(Cl)c2)n1` [Compound 21, 7-{2-[({[3-tert-butyl-1-(3-chloro-4-hydroxyphenyl)-1H-pyrazol-5-yl]carbamoyl}amino)methyl]phenoxy}-N-(1,3-dihydroxypropan-2-yl)imidazo[2,1-b][1,3]benzothiazole-3-carboxamide], for which the inhibition at 1 µM lay within 80 to 100%. For `CC(C)(C)c1cc(NC(=O)NCc2ccccc2Oc2ccc3c(c2)sc2ncc(CSCCO)n23)n(-c2ccc(O)c(Cl)c2)n1` [Compound 23, 1-[3-tert-butyl-1-(3-chloro-4-hydroxyphenyl)-1H-pyrazol-5-yl]-3-{2-[(3-{[(2-hydroxyethyl)sulfanyl]methyl}imidazo[2,1-b][1,3]benzothiazol-7-yl)oxy]benzyl}urea], the inhibition at 1 µM was in the range of 80 to 100%. The same measure, in the same setting: under `CC(C)(C)c1cc(NC(=O)NCc2ccccc2Sc2ccc3c(c2)sc2ncc(C(=O)O)n23)n(-c2ccc(O)c(Cl)c2)n1` [Compound 24, 7-({2-[({[3-tert-butyl-1-(3-chloro-4-hydroxyphenyl)-1H-pyrazol-5-yl]carbamoyl}amino)methyl]phenyl}sulfanyl)imidazo[2,1-b][1,3]benzothiazole-3-carboxylic acid] stands 40 to 60%. Take `CCOC(=O)c1cnc2sc3cc(Oc4ccccc4CNC(=O)Nc4cc(C(C)(C)C)nn4-c4ccc(O)c(Cl)c4)ccc3n12` [Compound 25, ethyl 7-{2-[({[3-tert-butyl-1-(3-chloro-4-hydroxyphenyl)-1H-pyrazol-5-yl]carbamoyl}amino)methyl]phenoxy}imidazo[2,1-b][1,3]benzothiazole-3-carboxylate]: the inhibition at 0.1 µM (Concentration 100 nM) is 60 to 80%.

In the case of `CCOC(=O)c1cnc2sc3cc(Oc4ccc(NC(=O)Nc5cc(C(C)(C)C)nn5-c5ccc(O)c(Cl)c5)cc4)ccc3n12` [Compound 26, ethyl 7-[4-({[3-tert-butyl-1-(3-chloro-4-hydroxyphenyl)-1H-pyrazol-5-yl]carbamoyl}amino)phenoxy]imidazo[2,1-b][1,3]benzothiazole-3-carboxylate], the inhibition at 1 µM was at most 20%. On the same count and under the same terms, next, `CC(C)(C)c1cc(NC(=O)Nc2ccc(Oc3ccc4c(c3)sc3ncc(CO)n34)cc2)n(-c2ccc(O)c(Cl)c2)n1` [Compound 27, 1-[3-tert-butyl-1-(3-chloro-4-hydroxyphenyl)-1H-pyrazol-5-yl]-3-(4-{[3-(hydroxymethyl)imidazo[2,1-b][1,3]benzothiazol-7-yl]oxy}phenyl)urea]: 60 to 80%; `CN(CCO)C(=O)c1cnc2sc3cc(Oc4ccccc4CNC(=O)Nc4cc(C(C)(C)C)nn4-c4ccc(O)c(Cl)c4)ccc3n12` [Compound 28, 7-{2-[({[3-tert-butyl-1-(3-chloro-4-hydroxyphenyl)-1H-pyrazol-5-yl]carbamoyl}amino)methyl]phenoxy}-N-(2-hydroxyethyl)-N-methylimidazo[2,1-b][1,3]benzothiazole-3-carboxamide]: 80 to 100%. Same read-out and setting: under `CC(C)(C)c1cc(NC(=O)NCc2ccccc2Oc2ccc3c(c2)sc2ncc(CN4CCSCC4)n23)n(-c2ccc(O)c(Cl)c2)n1` [Compound 29, 1-[3-tert-butyl-1-(3-chloro-4-hydroxyphenyl)-1H-pyrazol-5-yl]-3-(2-{[3-(thiomorpholin-4-ylmethyl)imidazo[2,1-b][1,3]benzothiazol-7-yl]oxy}benzyl)urea] stands 80 to 100%; under `CCOC(=O)CSCc1cn2c(n1)sc1cc(Oc3ccccc3CNC(=O)Nc3cc(C(C)(C)C)nn3-c3ccc(O)c(Cl)c3)ccc12` [Compound 30, ethyl {[(7-{2-[({[3-tert-butyl-1-(3-chloro-4-hydroxyphenyl)-1H-pyrazol-5-yl]carbamoyl}amino)methyl]phenoxy}imidazo[2,1-b][1,3]benzothiazol-2-yl)methyl]sulfanyl}acetate], 80 to 100%; under `CC(C)(C)c1cc(NC(=O)NCc2ccccc2Oc2ccc3c(c2)sc2ncc(CN4CCOCC4)n23)n(-c2ccc(O)c(Cl)c2)n1` [Compound 35, 1-[3-tert-butyl-1-(3-chloro-4-hydroxyphenyl)-1H-pyrazol-5-yl]-3-(2-{[3-(morpholin-4-ylmethyl)imidazo[2,1-b][1,3]benzothiazol-7-yl]oxy}benzyl)urea], 80 to 100%. On the same count and under the same terms, under `COCc1c(C)nc2sc3cc(Oc4ccccc4CNC(=O)Nc4cc(C(C)(C)C)nn4-c4ccc(O)c(Cl)c4)ccc3n12` [Compound 37, 1-[3-tert-butyl-1-(3-chloro-4-hydroxyphenyl)-1H-pyrazol-5-yl]-3-(2-{[3-(methoxymethyl)-2-methylimidazo[2,1-b][1,3]benzothiazol-7-yl]oxy}benzyl)urea] stands 80 to 100%; under `Cc1nc2sc3cc(Oc4ccccc4CNC(=O)Nc4cc(C(C)(C)C)nn4-c4ccc(O)c(Cl)c4)ccc3n2c1CN1CCOCC1` [Compound 40, 1-[3-tert-butyl-1-(3-chloro-4-hydroxyphenyl)-1H-pyrazol-5-yl]-3-(2-{[2-methyl-3-(morpholin-4-ylmethyl)imidazo[2,1-b][1,3]benzothiazol-7-yl]oxy}benzyl)urea], 80 to 100%.

As for `O=C(Nc1ccc(Oc2ccc3c(c2)sc2ncc(C(=O)O)n23)cc1)NC(CO)c1ccccc1` (stereo not drawn) [Compound 41, 7-(4-{[(2-hydroxy-1-phenylethyl)carbamoyl]amino}phenoxy)imidazo[2,1-b][1,3]benzothiazole-3-carboxylic acid], the inhibition at 1 µM is at most 20%.

As for `CCOC(=O)c1cnc2sc3cc(Oc4ccccc4CNC(=O)NC(CO)c4ccccc4)ccc3n12` (stereo not drawn) [Compound 42, ethyl 7-[2-({[(2-hydroxy-1-phenylethyl)carbamoyl]amino}methyl)phenoxy]imidazo[2,1-b][1,3]benzothiazole-3-carboxylate], the inhibition at 1 µM is at most 20%.

As for `CCOC(=O)c1cnc2sc3cc(Oc4ccc(NC(=O)Nc5c(-c6ccccc6)noc5C)cc4)ccc3n12` [Compound 43, ethyl 7-(4-{[(5-methyl-3-phenyl-1,2-oxazol-4-yl)carbamoyl]amino}phenoxy)imidazo[2,1-b][1,3]benzothiazole-3-carboxylate], the inhibition at 1 µM was at most 20%. As to `CCOC(=O)c1cnc2sc3cc(Oc4ccccc4CNC(=O)Nc4ccc(OC)c(Cl)c4)ccc3n12` [Compound 44, ethyl 7-[2-({[(3-chloro-4-methoxyphenyl)carbamoyl]amino}methyl)phenoxy]imidazo[2,1-b][1,3]benzothiazole-3-carboxylate], the inhibition at 1 µM lay within 40 to 60%. On the same count and under the same terms, next, `CCOC(=O)c1cnc2sc3cc(Oc4ccccc4CNC(=O)Nc4cc(OC)cc(OC)c4)ccc3n12` [Compound 45, ethyl 7-[2-({[(3,5-dimethoxyphenyl)carbamoyl]amino}methyl)phenoxy]imidazo[2,1-b][1,3]benzothiazole-3-carboxylate]: at most 20%.

With `CCOC(=O)c1cnc2sc3cc(Oc4ccccc4CNC(=O)NC4CCCCC4)ccc3n12` [Compound 46, ethyl 7-(2-{[(cyclohexylcarbamoyl)amino]methyl}phenoxy)imidazo[2,1-b][1,3]benzothiazole-3-carboxylate], the inhibition at 1 µM is at most 20%. Still for that read-out and setting: next, `CCOC(=O)c1cnc2sc3cc(Oc4ccc(NC(=O)Nc5ccc(Cl)c(C(F)(F)F)c5)cc4)ccc3n12` [Compound 47, ethyl 7-[4-({[4-chloro-3-(trifluoromethyl)phenyl]carbamoyl}amino)phenoxy]imidazo[2,1-b][1,3]benzothiazole-3-carboxylate]: at most 20%; `COCc1c(C)nc2sc3cc(Oc4ccccc4CNC(=O)Nc4ccc(OC)c(Cl)c4)ccc3n12` [Compound 48, 1-(3-chloro-4-methoxyphenyl)-3-(2-{[3-(methoxymethyl)-2-methylimidazo[2,1-b][1,3]benzothiazol-7-yl]oxy}benzyl)urea]: 60 to 80%; `COCc1c(C)nc2sc3cc(Oc4ccccc4CNC(=O)Nc4ccc(Cl)c(C(F)(F)F)c4)ccc3n12` [Compound 49, 1-[4-chloro-3-(trifluoromethyl)phenyl]-3-(2-{[3-(methoxymethyl)-2-methylimidazo[2,1-b][1,3]benzothiazol-7-yl]oxy}benzyl)urea]: 80 to 100%. Still for that read-out and setting: next, `COCc1c(C)nc2sc3cc(Oc4ccccc4CNC(=O)Nc4cc(C(C)(C)C)no4)ccc3n12` [Compound 50, 1-(3-tert-butyl-1,2-oxazol-5-yl)-3-(2-{[3-(methoxymethyl)-2-methylimidazo[2,1-b][1,3]benzothiazol-7-yl]oxy}benzyl)urea]: 80 to 100%.

Source of the values: patent US10227361B2, “Fused imidazobenzothiazole compounds” (TORRENT PHARMACEUTICALS LIMITED, priority 2014, dated 2019).
